In publication PMC9052077 (Computational and Structural Biotechnology Journal, 2022):
Entries after “also recorded” stand apart in the source; their conditions may differ. Like-named read-outs stand apart in the source and are kept apart here.

Test system: HK-2 cells
Experiment: cells
Type: cell-based, human
Conditions: for IC50 value for HK-2 cells: 24 h
[1] = Homo sapiens, HK-2, 24 h, HK-2 cells, 24 h exposure, SRB assay, Table 1
[2] = Homo sapiens, HK-2, read-out: Activity IC50 (μM), HK-2 cells, Table 4
[3] = Homo sapiens, HK-2, read-out: Activity pIC50, HK-2 cells (converted), Table 4
[4] = Homo sapiens, HK-2, read-out: Bioactivity (μM), HK-2 cells, Table 3

Compound | IC50 value for HK-2 cells (HK-2 cells, SRB assay) | IC50 [1] | IC50 [2] | IC50 [3] | IC50 [4] | IC50 (HK-2 cells, 24 h exposure, SRB assay, Table 1) | Activity pIC50 (HK-2 cells, Table 4) | Actual value (pIC50) (HK-2 cells, converted from IC50 by eq 2, Table 3) | IC50 (read-out: Activity IC50, HK-2 cells, Table 4) | IC50 (read-out: Bioactivity, HK-2 cells, Table 3)
C=CC[C@@H]1/C=C(\C)C[C@H](C)C[C@H](OC)[C@H]2O[C@@](O)(C(=O)C(=O)N3CCCC[C@H]3C(=O)O[C@H](/C(C)=C/[C@@H]3CC[C@@H](O)[C@H](OC)C3)[C@H](C)[C@@H](O)CC1=O)[C@H](C)C[C@@H]2OC [Compound 9, Tacrolimus] | micromolar of tens digit | 49.4 µM | 49.4 µM | 49 µM | 49.4 µM |  |  |  |  | 
C[C@@H](NCCCc1cccc(C(F)(F)F)c1)c1cccc2ccccc12 [Compound 8, Cinacalcet] | micromolar of tens digit | 17.1 µM | 17.1 µM | 17 µM | 17.1 µM |  |  |  |  | 
C/C=C(/C)C(=O)O[C@H]1C(C)=C2[C@H]([C@@H]1OC(=O)CCCCCCC)[C@@](C)(OC(C)=O)C[C@H](OC(=O)CCC)[C@@]1(O)[C@H]2OC(=O)[C@@]1(C)O [Compound 1, Thapsigargin] |  | 0.18 µM | 0.18 µM | 0.182 µM | 0.18 µM |  |  |  |  | 
C[C@@H]1Cc2c(Cl)cc(C(=O)N[C@@H](Cc3ccccc3)C(=O)O)c(O)c2C(=O)O1 [Compound 3, Ochratoxin A] | micromolar of tens digit | 46.1 µM | 46.1 µM | 45.7 µM | 46.1 µM |  |  |  |  | 
C[C@@H]1[C@H](O)[C@@H](C)/C=C/C=C/C=C/C=C/C=C/C=C/C=C/[C@H](O[C@@H]2O[C@H](C)[C@@H](O)[C@H](N)[C@@H]2O)C[C@@H]2O[C@](O)(C[C@@H](O)C[C@@H](O)[C@H](O)CC[C@@H](O)C[C@@H](O)CC(=O)O[C@H]1C)C[C@H](O)[C@H]2C(=O)O [Compound 13, Amphotericin B] | unit digits | 3.7 µM | 3.7 µM | 3.72 µM | 3.7 µM |  |  |  |  | 
N.N.[Cl][Pt][Cl] [Compound 12, Cisplatin] | micromolar of tens digit |  |  |  |  | 25.4 µM | 4.59 | 4.59 | 25.4 µM | 25.4 µM
CO[C@@]12[C@H](COC(N)=O)C3=C(C(=O)C(C)=C(N)C3=O)N1C[C@@H]1N[C@@H]12 [Compound 10, Mitomycin C] | unit digits; also recorded: micromolar of tens digit | 5.04 µM | 5.04 µM | 5.01 µM | 5.04 µM |  |  |  |  | 
COc1ccnc(C[S+]([O-])c2nc3ccc(OC(F)F)cc3[nH]2)c1OC (stereo not drawn) [Compound 11, Pantoprazole] |  | 300 µM | 300 µM | 302 µM | 300 µM |  |  |  |  | 
